Read-outs that look alike come from different tables or passages of the source.
Legend:
[1] = molecular target: IL-23 mediated signalling (Homo sapiens, UniProt Q5VWK5); assay: Functional inhibition of IL-23 mediated STAT3 signalling (phospho-STAT3 MSD) in DB cells; format: cell-based; details: DB cells, hIL-23 at EC80
Procedure, shortened: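 DB cells preincubated with inhibitor 15 min at 37 °C, then stimulated 90 min with EC80 human IL-23; lysate phospho-STAT3 measured by MSD electrochemiluminescence. Signal normalized to IL-23-alone and buffer controls; IC50 and maximal % inhibition from 4-parameter logistic fit.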

[2] = Peptide stability in simulated gastric fluid (SGF); format: in vitro ADME; details: pig, simulated gastric fluid (SGF) with porcine pepsin (3.2 g/L), 37 °C, porcine pepsin; for remaining at 4 h, 10 µM: pH 1.2, 4 h
Procedure, shortened: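 Peptide incubated at 37 °C with gentle shaking in SGF (NaCl, pH 1.2). Samples centrifuged, diluted and analysed by LC-HRMS; percent remaining at each timepoint from absolute peak areas relative to time zero, with 4 h as the reference point.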

IL-23 mediated signalling, sequence (Q5VWK5 24-629 limits assumed): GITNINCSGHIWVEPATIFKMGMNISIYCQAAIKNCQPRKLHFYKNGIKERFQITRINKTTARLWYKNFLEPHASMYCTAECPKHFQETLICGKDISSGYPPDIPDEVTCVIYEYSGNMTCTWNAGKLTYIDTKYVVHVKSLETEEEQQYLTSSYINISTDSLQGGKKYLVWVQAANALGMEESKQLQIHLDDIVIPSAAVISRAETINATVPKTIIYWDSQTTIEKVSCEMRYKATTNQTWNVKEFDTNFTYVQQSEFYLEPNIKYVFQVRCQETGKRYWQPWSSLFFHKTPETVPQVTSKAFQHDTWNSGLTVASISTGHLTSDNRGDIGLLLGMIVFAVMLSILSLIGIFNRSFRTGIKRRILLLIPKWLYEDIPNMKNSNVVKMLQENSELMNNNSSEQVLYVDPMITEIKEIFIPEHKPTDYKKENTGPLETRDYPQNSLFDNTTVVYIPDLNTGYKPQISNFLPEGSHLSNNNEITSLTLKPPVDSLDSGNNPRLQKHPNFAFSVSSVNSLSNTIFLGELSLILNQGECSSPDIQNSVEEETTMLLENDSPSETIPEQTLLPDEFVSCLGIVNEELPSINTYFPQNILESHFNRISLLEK

- IC50 ([1]; SAR tables 2-1 to 2-7, read-out: IC50 (pSTAT3)): 0.23 nM
- Emax ([1]; Table 3-2, maximal inhibitory response, read-out: hIL-23 (pSTAT3) antagonist % inhibition): 102%
- remaining at 1 h, 10 µM ([2]; pH 1.2, 10 µM, pH 1.2, 1 h, read-out: SGF (% remaining 1 h)): 104%
- remaining at 4 h, 10 µM ([2]; pH 1.2, 10 µM, read-out: SGF (% remaining 4 h)): 97%
- remaining at 4 h, 10 µM ([2]; pH 1.2, SAR tables, % peptide remaining, 10 µM, read-out: SGF (% after 4 h)): 104%
Compound: CC(C)C[C@]1(C)NC(=O)[C@H](Cc2ccc3ccccc3c2)NC(=O)[C@H](Cc2ccc(OCCN)cc2)NC(=O)[C@@H]2CCC(=O)N[C@H](CCCCNC(=O)CC[C@@H](C(=O)N[C@@H](CCN)C(=O)N[C@@H](Cc3cccnc3)C(N)=O)NC1=O)C(=O)N[C@@H]([C@@H](C)O)C(=O)N[C@@H](C(C)C)C(=O)N[C@@H](Cc1c[nH]c3ccccc13)C(=O)N[C@@H](CCC(N)=O)C(=O)N2 [Compound 1, [{d}K](1c)(6c)^†TVWQE(6c)[Y(2-aminoethoxy)][2-Nal][2-Me-Leu]E(1c)[Dab][3-(3-Pyridyl)-Ala]-[NH2]]

Source: EP4471048A1, “PEPTIDE INHIBITORS OF INTERLEUKIN-23 RECEPTOR” (Zealand Pharma A/S, priority 2023, dated 2024)
